The results in this text go back to US20260285853A1, “COMPOUNDS AND METHODS FOR MODULATING SPLICING” (REMIX THERAPEUTICS INC., priority 2023, published 2026).

Common to all, as to assay type: cell-based
The test system of test [1] is HTT mRNA. Put plainly: Splicing RT-qPCR assay, canonical (CJ) and alternative (AJ) junction mRNA, K562 cells. To be noted: Homo sapiens, K562.3 cells, 24 hours; for AC50: read-out: HTT AJ (AC50, increase in AJ mRNA); for IC50: read-out: HTT CJ (IC50, decrease in CJ mRNA). An outline of the steps: (§1)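 RT-qPCR read-out: CJ and AJ isoforms quantified by ΔCt against GAPDH or GUSB, normalized to DMSO, and converted to % response. Windows in 96-well format (50,000 cells/well) were 4.0 ΔCt for MYB-CJ and 3 for MYB-AJ, and 3.5 ΔCt for HTT-CJ and 9 for HTT-AJ. Cells were dosed for 24 h, top 10 uM.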

Test [2] has as its system MYB mRNA. Described as above. As to conditions: Homo sapiens, K562.3 cells, 24 hours; for AC50: read-out: MYB AJ (AC50, increase in AJ mRNA); for IC50: read-out: MYB CJ (IC50, decrease in CJ mRNA). An outline of the steps:
as §1

Test [3] concerns HTT mRNA. Put plainly: Splicing RT-qPCR assay (THP), Table 2A. To be noted: Table 2A (THP); for AC50: AJ mRNA increase, read-out: HTT AJ (increase in alternative junction mRNA, AC50); for IC50: CJ mRNA decrease, read-out: HTT CJ (decrease in canonical junction mRNA, IC50). Background: Quantitative PCR measures a nucleic acid by following its amplification.
In test [4] the test system is MYB mRNA. Put plainly: Splicing RT-qPCR assay (THP), Table 2A. As to conditions: Table 2A (THP); for AC50: AJ mRNA increase, read-out: MYB AJ (increase in alternative junction mRNA, AC50); for IC50: CJ mRNA decrease, read-out: MYB CJ (decrease in canonical junction mRNA, IC50).

SMILES strings stand for the structures. Where only a bound is given, the exact number is not on record here.

The AC50 is the concentration at which the activity in the assay is half-maximal. A word on the IC50: it is the concentration needed to halve the response being measured. On to `Cc1cn2cc(NC(=O)c3ccc(C4CCC(NC5CC5)CC4)c4cn(C)nc34)cc(F)c2n1` (stereo not drawn) [Compound 192, 4-[4-(cyclopropylamino)cyclohexyl]-N-(8-fluoro-2-methyl-imidazo[1,2-a]pyridin-6-yl)-2-methyl-indazole-7-carboxamide], for which the AC50 lay in the range of 1000 to 10000 nM in test [1], 100 to 1000 nM in test [2], 1000 to 10000 nM in test [3] and 100 to 1000 nM in test [4]. The IC50 in test [1] was 100 to 1000 nM; in test [2], 100 to 1000 nM; in test [3] it was 1000 to 10000 nM; in test [4], 100 to 1000 nM.

With `CCNC1CCN(c2ccc(C(=O)Nc3cc(F)c4nc(CO)cn4c3)c3nn(C)cc23)CC1` [Compound 193, 4-[4-(ethylamino)-1-piperidyl]-N-[8-fluoro-2-(hydroxymethyl)imidazo[1,2-a]pyridin-6-yl]-2-methyl-indazole-7-carboxamide], the AC50 in test [1] is more than 10000 nM; in test [2], 1000 to 10000 nM; in test [3], 1000 to 10000 nM; in test [4], 100 to 1000 nM. In addition, the IC50 in test [1] is more than 10000 nM; in test [2], 100 to 1000 nM; in test [3], 1000 to 10000 nM; in test [4] it was 100 to 1000 nM.

In the case of `Cc1cn2cc(NC(=O)c3ccc(C4CNCCO4)c4[nH]cnc34)cc(F)c2n1` (stereo not drawn) [Compound 194, N-(8-fluoro-2-methyl-imidazo[1,2-a]pyridin-6-yl)-7-morpholin-2-yl-1H-benzimidazole-4-carboxamide], the AC50 in test [1] is 1000 to 10000 nM; in test [2], 100 to 1000 nM; in test [3], more than 10000 nM; in test [4], 100 to 1000 nM. In addition, the IC50 in test [1] lay within 1000 to 10000 nM; in test [2] it was 100 to 1000 nM; in test [3], 1000 to 10000 nM; in test [4], 100 to 1000 nM.

On to `CCNC1CCN(c2cc(F)c(C(=O)Nc3cc(F)c4nc(C)cn4c3)c3ccoc23)CC1` [Compound 195, 7-[4-(ethylamino)-1-piperidyl]-5-fluoro-N-(8-fluoro-2-methylimidazo[1,2-a]pyridin-6-yl)-benzofuran-4-carboxamide], for which the AC50 in test [1], in test [2], in test [3] and in test [4] was more than 10000 nM throughout. The IC50 in test [1], in test [2], in test [3] and in test [4] was more than 10000 nM each time.

On to `CCNC1CCN(c2ccc(C(=O)Nc3cc(F)c4nc(C)cn4c3)c3nn(C)nc23)CC1` [Compound 196, 7-[4-(ethylamino)piperidin-1-yl]-N-(8-fluoro-2-methyl-imidazo[1,2-a]pyridin-6-yl)-2-methyl-1,2,3-benzotriazole-4-carboxamide], for which the AC50 in test [1], in test [2], in test [3] and in test [4] was 100 to 1000 nM throughout. Also, the IC50 in test [1], in test [2], in test [3] and in test [4] was 100 to 1000 nM in each case.

On to `CNC1(C)CCN(c2ccc(C(=O)Nc3cn4cc(C)nc4c(OC)n3)c3nn(C)cc23)CC1` [Compound 197, N-(8-methoxy-2-methylimidazo[1,2-a]pyrazin-6-yl)-2-methyl-4-(4-methyl-4-(methylamino)piperidin-1-yl)-2H-indazole-7-carboxamide], for which the AC50 in test [1], in test [2], in test [3] and in test [4] was less than 100 nM in each case. Besides, the IC50 in test [1], in test [2], in test [3] and in test [4] was less than 100 nM each time.

As for `CCNC1CCN(c2ccc(C(=O)Nc3cc(F)c4nc(C)cn4c3)c3c2nnn3C)CC1` [Compound 198, 4-(4-(ethylamino)piperidin-1-yl)-N-(8-fluoro-2-methylimidazo[1,2-a]pyridin-6-yl)-1-methyl-1H-benzo[d][1,2,3]triazole-7-carboxamide 2,2,2-trifluoroacetate], the AC50 in test [1], in test [2], in test [3] and in test [4] was more than 10000 nM throughout. For the same molecule, the IC50 in test [1], in test [2], in test [3] and in test [4] was more than 10000 nM throughout.

For the molecule `CCNC1CCN(c2ccc(C(=O)Nc3cc(F)c4nc(C)cn4c3)c3nnn(C)c23)CC1` [Compound 199, 7-[4-(ethylamino)-1-piperidyl]-N-(8-fluoro-2-methylimidazo[1,2-a]-pyridin-6-yl)-1-methylbenzotriazole-4-carboxamide], the AC50 is more than 10000 nM in test [1], 100 to 1000 nM in test [2], more than 10000 nM in test [3] and 100 to 1000 nM in test [4]. For the same molecule, the IC50 in test [1] is more than 10000 nM; in test [2], 100 to 1000 nM; in test [3] it was more than 10000 nM; in test [4], 100 to 1000 nM.

Turning to `CCNC1CCN(c2ccc(C(=O)Nc3cc(F)c4nc(C)oc4c3)c3nn(C)cc23)CC1` [Compound 200, 4-(4-(ethylamino)piperidin-1-yl)-N-(4-fluoro-2-methylbenzo[d]-oxazol-6-yl)-2-methyl-2H-indazole-7-carboxamide], the AC50 in test [1] is 1000 to 10000 nM; in test [2], less than 100 nM; in test [3], 1000 to 10000 nM; in test [4], less than 100 nM. For the same molecule, the 50% inhibitory concentration (IC50) in test [1] was 100 to 1000 nM; in test [2] it was 100 to 1000 nM; in test [3], 100 to 1000 nM; in test [4] it was less than 100 nM.

Consider `CCNC1CCN(c2ccc(C(=O)Nc3cc(F)c4nc(CC)cn4c3)c3nn(C)cc23)CC1` [Compound 201, 4-[4-(ethylamino)-1-piperidyl]-N-(2-ethyl-8-fluoro-imidazo[1,2-a]pyridin-6-yl)-2-methyl-indazole-7-carboxamide], for which the concentration at half-maximal activity (AC50) in test [1], in test [2], in test [3] and in test [4] was 1000 to 10000 nM throughout. For the same molecule, the 50% inhibitory concentration (IC50) in test [1], in test [2], in test [3] and in test [4] was 1000 to 10000 nM throughout.

Consider `CCNC1CCN(c2ccc(C(=O)Nc3cc(F)c4nc(CF)cn4c3)c3nn(C)cc23)CC1` [Compound 202, 4-[4-(ethylamino)-1-piperidyl]-N-[8-fluoro-2-(fluoromethyl)imidazo[1,2-a]pyridin-6-yl]-2-methyl-indazole-7-carboxamide], for which the concentration at half-maximal activity (AC50) in test [1] is 1000 to 10000 nM; in test [2] it was 100 to 1000 nM; in test [3], 100 to 1000 nM; in test [4], less than 100 nM. The IC50 was 1000 to 10000 nM in test [1], less than 100 nM in test [2], 1000 to 10000 nM in test [3] and less than 100 nM in test [4].

For the molecule `Cc1cn2cc(NC(=O)c3ccc(N4CCC(NC5CC56CC6)CC4)c4cn(C)nc34)cc(F)c2n1` (stereo not drawn) [Compound 203, N-(8-fluoro-2-methyl-imidazo[1,2-a]-pyridin-6-yl)-2-methyl-4-[4-(spiro[2.2]pentan-2-ylamino)-1-piperidyl] indazole-7-carboxamide], the half-maximal activity concentration (AC50) in test [1] was 1000 to 10000 nM; in test [2] it was less than 100 nM; in test [3], 100 to 1000 nM; in test [4], less than 100 nM. Besides, the IC50 is 100 to 1000 nM in test [1], less than 100 nM in test [2], 100 to 1000 nM in test [3] and less than 100 nM in test [4].

As to `Cc1cn2cc(NC(=O)c3ccc(N4CCC(NC5CC5C)CC4)c4cn(C)nc34)cc(F)c2n1` (stereo not drawn) [Compound 204, N-(8-fluoro-2-methyl-imidazo[1,2-a]pyridin-6-yl)-2-methyl-4-[4-[(2-methyl-cyclopropyl)amino]-1-piperidyl] indazole-7-carboxamide], the AC50 in test [1] is 100 to 1000 nM; in test [2], less than 100 nM; in test [3], 100 to 1000 nM; in test [4] it was less than 100 nM. In addition, the IC50 is 100 to 1000 nM in test [1], less than 100 nM in test [2], 100 to 1000 nM in test [3] and less than 100 nM in test [4].

As for `Cc1cn2cc(NC(=O)c3ccc(N4CCC(NC5CC5(C)C)CC4)c4cn(C)nc34)cc(F)c2n1` (stereo not drawn) [Compound 205, 4-(4-((2,2-dimethylcyclopropyl)amino)piperidin-1-yl)-N-(8-fluoro-2-methylimidazo[1,2-a]pyridin-6-yl)-2-methyl-2H-indazole-7-carboxamide], the AC50 in test [1] was 1000 to 10000 nM; in test [2] it was less than 100 nM; in test [3], 100 to 1000 nM; in test [4], less than 100 nM. In addition, the concentration for half-maximal inhibition (IC50) is 1000 to 10000 nM in test [1], less than 100 nM in test [2], 100 to 1000 nM in test [3] and less than 100 nM in test [4].

As for `CCNC1CCN(c2ccc(C(=O)Nc3cn4cc(C)nc4c(OC)n3)c3nn(C)cc23)CC1` [Compound 206, 4-[4-(ethylamino)-1-piperidyl]-N-(8-methoxy-2-methyl-imidazo[1,2-a]pyrazin-6-yl)-2-methyl-indazole-7-carboxamide], the AC50 in test [1] is 100 to 1000 nM; in test [2], less than 100 nM; in test [3], 100 to 1000 nM; in test [4] it was less than 100 nM. The IC50 in test [1] was 100 to 1000 nM; in test [2], less than 100 nM; in test [3] it was 100 to 1000 nM; in test [4] it was less than 100 nM.
